{"source": "patent US11999718B2", "about": "“Pyrazole derivatives” (Aptabio Therapeutics Inc., priority 2021, dated 2024)", "key": {"[1]": {"test_system": "HL-60 cells differentiated into neutrophil cells", "experiment": "ROS production induced by PMA in HL-60 cells differentiated into neutrophil cells", "type": "cell-based", "settings": "Homo sapiens, 0.5 h; differentiated HL-60 cells, compounds 0.5 uM (0.5 mM in the source) for 30 minutes, 200 nM PMA, L-012 luminescence"}, "N27 cells": {"test_system": "N27 cells", "experiment": "ROS production induced by alpha-synuclein preformed fibril (PFF) in N27 cells", "type": "cell-based, rat", "settings": "0.001 μM compound, 24 hours, CellROX-Deep Red, FIG. 2", "procedure": "In order to confirm the effect of the compounds of Synthetic examples on ROS production from dopaminergic neural cells, ROS production was induced by alpha-synuclein preformed fibril (PFF) stimulation on N27 (rat dopaminergic neural cell, Sigma) cells and under this condition, the inhibitory effect of ROS production of the compounds of Synthetic examples was observed.\nThe N27 cells were cultured in RPMI medium containing 10% FBS, 1 μM angiotensin II, and the prepared cells were aliquoted at a concentration of 4×10^3 cells/well on a 6-well plate. The ROS production stimulus, PFF (preformed fibril) and the compounds of Synthetic examples were treated to the cells. After treating the compounds of Synthetic examples for 24 hours, fluorescence of each well was measured using CellROX-Deep Red reagent, thereby confirming the degree of ROS production."}, "HFF-1 cells": {"test_system": "HFF-1 cells", "experiment": "Collagen gel contraction induced by TGF-β1 in HFF-1 cells", "type": "cell-based, human", "settings": "HFF-1 cells in collagen gel, TGF-β1 10 ng/ml, 72 hours, FIG. 7", "source_text": "In order to confirm the effect of the compounds of Synthetic examples on differentiation of fibroblasts into myofibroblasts, the inhibitory effect of the compounds of Synthetic examples on the phenomenon of contraction of gel induced by interaction of human foreskin fibroblasts (HFF-1, ATCC) and collagen was observed.\nThe mixed solution of the HFF-1 cells and collagen (bovine type I collagen) prepared at a concentration of 3×10^6 cells/ml was aliquoted in a 24 well plate, respectively, and then cultured under the condition of 5% CO2, 37° C. for 1 hour to induce gel polymerization. Then, after suspending the gel attached on the plate from the plate using a spoon, a medium comprising TGF-β1 and Synthetic example compounds was added to each well. After culturing for 72 hours, the Synthetic example compounds were treated by 10, 20, 30, 40, 60 and 80 μM to measure the size of the gel, and thereby, the degree of contraction of the gel by drug treatment was confirmed."}, "LX-2 cells": {"test_system": "LX-2 cells", "experiment": "ROS production induced by PMA in LX-2 cells", "type": "cell-based, human", "settings": "FIG. 1", "source_text": "(§1) In order to confirm the effect of the compounds of Synthetic examples on ROS production from fibroblasts and specific substrate cells, ROS production was induced by stimulation of PMA (phorbol 12-myristate 13-acetate), TGF-β1, palmitate or high concentration-glucose, or the like, in HL-60 cells differentiated into neutrophil cells by DMSO treatment, NHLF (normal human lung fibroblast, Lonza), LX-2 (human hepatic stellate cells, Sigma), ARPE19 (human retinal pigment epithelial cell, ATCC), and KEL-FIB (Keloid fibroblast, ATCC) cells, and under this condition, the inhibitory effect of ROS production of the compounds of Synthetic Examples was observed.\n(§2) The NHLF (normal human lung fibroblast, Lonza), LX-2 (human hepatic stellate cells, Sigma), ARPE19 (human retinal pigment epithelial cell, ATCC), KEL-FIB (keloid fibroblast, ATCC) cells were suspended in a culture medium containing 10% FBS and aliquoted on a 96 well plate and then cultured under the condition of 5% CO2, 37° C. for 24 hours. After pre-treating the compounds of Synthetic examples at a concentration of 10, 20, 30, 40, 60 and 80 μM for 30 minutes to 1 hour, the ROS stimulus was treated to each well containing the cells and drug. After additional culturing for 48 hours, the ROS production level was confirmed using L-012 or DCF-DA."}, "IL-1β": {"test_system": "IL-1β", "experiment": "Expression of IL-1β induced by LPS in human-derived fibroblasts (RT-PCR)", "type": "cell-based", "settings": "LX2, NHLF, ARPE19 and KEL-Fib cells, LPS 1 μg/ml 6 hours, 10 μM compound, FIG. 8", "procedure": "After inoculating 2×10^5 cells in a 6 well plate and then culturing for 24 hours, they were further cultured in a serum-free culture solution for 16 hours and then the Synthetic example 1 Compound was pre-treated for 20 minutes according to each condition and inflammation reaction was induced with LPS (1 μg/ml) for 6 hours. The expression of IL-1β was confirmed using RT-PCR. Total RNA was separated from the cells using RNeasy mini kit (Qiagen), and for the separated RNA 2 ug, cDNA was synthesized using PrimeScript™ II 1st strand cDNA synthesis kit (TaKaRa) and then PCR was performed with AccuPower® PCR PreMix (Bioneer) to amplify genes. The nucleotide sequences for target primers are as follows. IL-1β (forward: 5′-[…]-3′(SEQ ID NO: 1), reverse: 5′-[…]-3′(SEQ ID NO: 2)); GAPDH (forward: 5′-[…]-3′(SEQ ID NO: 3), reverse: 5′-[…]-3′(SEQ ID NO: 4)); β-actin (forward: 5′-[…]-3′(SEQ ID NO: 5), reverse: 5′-[…]-3′(SEQ ID NO: 6)). The PCR product was confirmed by electrophoresis in 1.5% agarose gel."}, "αSMA": {"test_system": "αSMA", "experiment": "Expression of αSMA induced by TGF-β1 (immunocytochemistry)", "type": "cell-based, human", "settings": "TGF-β1 10 ng/ml, 10 μM compound, FIG. 4", "source_text": "In order to confirm whether the compounds of Synthetic examples of the present invention affect differentiation of fibroblasts into myofibroblasts, the inhibitory effect of the compounds of Synthetic examples on increase in expression of αSMA (biomarker for confirming differentiation into myofibroblasts) induced by TGF-β1 on HFF-1 (human foreskin fibroblast, ATCC), NHLF (normal human lung fibroblast, Lonza), LX-2 (human hepatic stellate cells, Sigma), ARPE19 (human retinal pigment epithelial cell, ATCC), and KEL-FIB (Keloid fibroblast, ATCC) cells was to be observed.\nEach cell was suspended in a DMEM medium containing 10% FBS and aliquoted at a concentration of 1×10^4 to 1.5×10^5 cells/well in a 4-well chamber slide (Nunc) and the compounds of Synthetic examples and TGF-β1 (both TGF β1 and TGF-β have the same meaning) were treated to prepare cells to be used for confirming αSMA expression. The confirmation of αSMA expression in the prepared cells was performed by immunocytochemistry as follows. For the cells, fixation with 4% paraformaldehyde for 10 minutes and permeabilization using 0.1% Triton x-100 were performed, and then processes of treating the primary antibody (anti-αSMA Ab, 1:200, at 4° C. for 16 hours) and secondary antibody (Alexa-594 conjugated Ab, 1:800, at a room temperature for 1 hour) against αSMA were progressed in order, and then the expression level of αSMA was observed using a fluorescence microscope.\nFIG. 3 observes the effect of treating various compounds of Synthetic examples by 10, 20 and 40 μM, after inducing αSMA expression by treatment of TGF-β1(10 ng/ml) into HFF cells."}, "IL-6": {"test_system": "IL-6", "experiment": "Expression of IL-6 in pancreatic cancer associated fibroblasts (ELISA)", "type": "cell-based, human", "settings": "P.CAF cells, 48 hours treatment, FIG. 5", "procedure": "(§3) In order to confirm the effect of the compounds of Synthetic examples of the present invention on inflammation reaction in cancer associated fibroblasts, whether the expression of IL6 and IL8 was inhibited by the compounds of Synthetic examples in pancreatic cancer associated fibroblasts (P.CAF) was observed.\n(§4) After inoculating 1.5×10^5 cells in a 6 well plate and then culturing in P.CAF complete media for 48 hours, the compounds of Synthetic examples were treated by 10, 20, 30, 40, 60 and 80 μM for 48 hours according to each condition, and then the expression of IL-6 and IL-8 was confirmed by performing ELISA with Quantkine ELISA kit (R&D systems) as follows.\n(§5) 100 μl of the culture solution in which the compounds of Synthetic examples were treated for 48 hours was added to the microplate strip for analysis including a 100 μl assay diluent and left at a room temperature for 2 hours and then the contents were removed, and then it was washed with 400 μl wash buffer 4 times. 200 μl of a human IL-6 or IL-8 conjugate was added and left at a room temperature for 2 hours and then the contents were removed, and then it was washed with 400 μl wash buffer 4 times. 200 μl of substrate solution was added and left at a room temperature for 20 minutes and then 50 μl of stop solution was added, and the absorbance at a wavelength of 450 nm was measured within 30 minutes to confirm the expression level of IL-6 and IL-8."}, "IL-8": {"test_system": "IL-8", "experiment": "Expression of IL-8 in pancreatic cancer associated fibroblasts (ELISA)", "type": "cell-based, human", "settings": "P.CAF cells, 48 hours treatment, FIG. 6", "procedure": "as §3, §4, §5"}, "NHLF cells": {"test_system": "NHLF cells", "experiment": "ROS production induced by PMA in NHLF cells", "type": "cell-based, human", "settings": "FIG. 1", "source_text": "as §1, §2"}}}
{"molecule": "CN1CCN(C2CCc3nn(-c4ccccn4)c(O)c3C2)CC1", "note": "(stereo not drawn) [Compound 16, 5-(4-Methylpiperazin-1-yl)-2-(pyridin-2-yl)-4,5,6,7-tetrahydro-2H-indazol-3-ol]", "values": [{"measurement": "inhibition at 0.5 µM", "setting": "[1]", "value": "> 70", "unit": "%"}, {"measurement": "ROS production induced by PFF", "setting": "N27 cells", "value": "effectively inhibited"}, {"measurement": "contraction of the gel induced by TGF-β1", "setting": "HFF-1 cells", "value": "effectively inhibited"}]}
{"molecule": "CN1CCN(C2CCc3nn(-c4ccc(C(F)(F)F)cn4)c(O)c3C2)CC1", "note": "(stereo not drawn) [Compound 82, 5-(4-Methylpiperazin-1-yl)-2-(5-(trifluoromethyl)pyridin-2-yl)-4,5,6,7-tetrahydro-2H-indazol-3-ol]", "values": [{"measurement": "inhibition at 0.5 µM", "setting": "[1]", "value": "50 to 70", "unit": "%"}, {"measurement": "ROS production induced by PFF", "setting": "N27 cells", "value": "effectively inhibited"}]}
{"molecule": "Oc1c2c(nn1-c1ccccn1)CCC(Nc1ccc(F)c(F)c1)C2", "note": "(stereo not drawn) [Compound 32, 5-(3,4-Difluorophenylamino)-2-(pyridin-2-yl)-4,5,6,7-tetrahydro-2H-indazol-3-ol]", "values": [{"measurement": "inhibition at 0.5 µM", "setting": "[1]", "value": "50 to 70", "unit": "%"}, {"measurement": "ROS production induced by PFF", "setting": "N27 cells", "value": "effectively inhibited"}]}
{"molecule": "CN(Cc1ccccc1)C1CCc2nn(-c3ccccn3)c(O)c2C1", "note": "(stereo not drawn) [Compound 1, 5-(Benzylmethylamino)-2-(pyridin-2-yl)-4,5,6,7-tetrahydro-2H-indazol-3-ol]", "values": [{"measurement": "inhibition at 0.5 µM", "setting": "[1]", "value": "> 70", "unit": "%"}, {"measurement": "ROS production induced by PMA", "setting": "LX-2 cells", "value": "inhibited"}, {"measurement": "IL-1β induced by LPS", "setting": "IL-1β", "value": "effectively inhibited in a concentration-dependent manner"}, {"measurement": "increase in expression of αSMA induced by TGF-β1", "setting": "αSMA; ARPE19 cells", "value": "significantly inhibited"}, {"measurement": "increase in expression of αSMA induced by TGF-β1", "setting": "αSMA; KEL-FIB cells", "value": "significantly inhibited"}, {"measurement": "increase in expression of αSMA induced by TGF-β1", "setting": "αSMA; LX-2 cells", "value": "significantly inhibited"}, {"measurement": "increase in expression of αSMA induced by TGF-β1", "setting": "αSMA; NHLF cells", "value": "significantly inhibited"}, {"measurement": "contraction of the gel induced by TGF-β1", "setting": "HFF-1 cells", "value": "effectively inhibited"}, {"measurement": "IL-6 expressed in P.CAF", "setting": "IL-6", "value": "effectively inhibited"}, {"measurement": "IL-8 expressed in P.CAF", "setting": "IL-8", "value": "effectively inhibited"}, {"measurement": "ROS production induced by PMA", "setting": "NHLF cells", "value": "inhibited"}]}
{"molecule": "CN(Cc1ccc(S(C)(=O)=O)cc1)C1CCc2nn(-c3ccccn3)c(O)c2C1", "note": "(stereo not drawn) [Compound 12, 5-[(4-Methanesulfonylbenzyl)methylamino]-2-(pyridin-2-yl)-4,5,6,7-tetrahydro-2H-indazol-3-ol]", "values": [{"measurement": "inhibition at 0.5 µM", "setting": "[1]", "value": "> 70", "unit": "%"}, {"measurement": "ROS production induced by PFF", "setting": "N27 cells", "value": "effectively inhibited"}, {"measurement": "contraction of the gel induced by TGF-β1", "setting": "HFF-1 cells", "value": "effectively inhibited"}]}
{"molecule": "OCCOCCN1CCN(C2CCc3nn(-c4ccccn4)c(O)c3C2)CC1", "note": "(stereo not drawn) [Compound 17, 5-{4-[2-(2-hydroxyethoxy)-ethyl]-piperazin-1-yl}-2-pyridin-2-yl-4,5,6,7-tetrahydro-2H-indazol-3-ol]", "values": [{"measurement": "inhibition at 0.5 µM", "setting": "[1]", "value": "> 70", "unit": "%"}, {"measurement": "ROS production induced by PMA", "setting": "LX-2 cells", "value": "inhibited"}, {"measurement": "ROS production induced by PMA", "setting": "NHLF cells", "value": "inhibited"}]}
